Test [1] addresses PIK3CA(C420R) (Homo sapiens, UniProt P42336, C420R). The experiment in a line: biochemical. Also noted: KINOMEscan scanMAX competition binding, DNA-tagged kinases, qPCR read-out, percent control at 300 nM. As to conditions: read-out: Percent control / Zanubrutinib.
For test [2], the target named is T1, SNARK (Homo sapiens, UniProt Q9H093).
T1 construct: gene NUAK2
The experiment in a line: biochemical. Also noted: KINOMEscan scanMAX competition binding, DNA-tagged kinases, qPCR read-out, percent control at 300 nM. Conditions: read-out: Percent control / Zanubrutinib.

Test [3] deals with T2, IKK-alpha (Homo sapiens, UniProt O15111).
T2 construct: gene CHUK
The experiment in a line: biochemical. On the set-up: KINOMEscan scanMAX competition binding, DNA-tagged kinases, qPCR read-out, percent control at 300 nM. As to conditions: read-out: Percent control / Zanubrutinib.

The target in test [4] is CASK (Homo sapiens, UniProt O14936). The experiment in a line: biochemical. Also noted: KINOMEscan scanMAX competition binding, DNA-tagged kinases, qPCR read-out, percent control at 300 nM. As to conditions: read-out: Percent control / Zanubrutinib.
The target in test [5] is STK39 (Homo sapiens, UniProt Q9UEW8). The experiment in a line: biochemical. Also noted: KINOMEscan scanMAX competition binding, DNA-tagged kinases, qPCR read-out, percent control at 300 nM. Conditions: read-out: Percent control / Zanubrutinib.
Test [6] has as its target LRRK2(G2019S) (Homo sapiens, UniProt Q5S007, G2019S). The experiment in a line: biochemical. On the set-up: KINOMEscan scanMAX competition binding, DNA-tagged kinases, qPCR read-out, percent control at 300 nM. Conditions: read-out: Percent control / Zanubrutinib.
The target of test [7] is T3, IKK-beta (Homo sapiens, UniProt O14920).
T3 construct: gene IKBKB
The experiment in a line: biochemical. On the set-up: KINOMEscan scanMAX competition binding, DNA-tagged kinases, qPCR read-out, percent control at 300 nM. As to conditions: read-out: Percent control / Zanubrutinib.

The target of test [8] is T4, HUNK (Homo sapiens, UniProt P57058).
T4 sequence (P57058 1-714): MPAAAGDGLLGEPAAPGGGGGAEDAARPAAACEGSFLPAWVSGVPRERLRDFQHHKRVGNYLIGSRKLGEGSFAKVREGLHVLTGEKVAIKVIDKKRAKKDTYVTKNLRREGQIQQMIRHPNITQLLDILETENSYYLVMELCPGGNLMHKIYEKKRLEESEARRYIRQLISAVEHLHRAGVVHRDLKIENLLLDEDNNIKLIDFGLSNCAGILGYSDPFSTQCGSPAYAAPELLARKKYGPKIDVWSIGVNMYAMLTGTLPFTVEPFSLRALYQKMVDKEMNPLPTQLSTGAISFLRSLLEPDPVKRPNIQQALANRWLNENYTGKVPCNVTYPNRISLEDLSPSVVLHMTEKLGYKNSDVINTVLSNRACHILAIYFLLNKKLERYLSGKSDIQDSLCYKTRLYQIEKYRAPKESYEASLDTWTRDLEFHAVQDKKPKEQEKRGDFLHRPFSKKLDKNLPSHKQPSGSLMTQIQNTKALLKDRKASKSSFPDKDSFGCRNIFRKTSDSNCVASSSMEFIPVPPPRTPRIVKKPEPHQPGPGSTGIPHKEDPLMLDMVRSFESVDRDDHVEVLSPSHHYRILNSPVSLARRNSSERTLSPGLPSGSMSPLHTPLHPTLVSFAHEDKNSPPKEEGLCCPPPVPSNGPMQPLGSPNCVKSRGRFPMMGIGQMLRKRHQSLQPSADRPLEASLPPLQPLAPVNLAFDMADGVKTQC
The experiment in a line: KINOMEscan binding assay. On the set-up: purchased Eurofins DiscoverX (KINOMEscan scanMAX service). Conditions: 300 nM; read-out: inhibition of kinase binding (KINOMEscan).

Test [9] relates to TMD8 xenograft tumor. The experiment in a line: Gene set enrichment analysis (GSEA) of TMD8 xenograft microarray data. Type of test: in vivo, mouse.
Test [10] concerns TMD8 subcutaneous xenograft. The experiment in a line: TMD8 subcutaneous xenograft model, tumor volume. Type of test: in vivo, mouse. Conditions: SCID mice; 1, 3, 10 mg/kg BID orally, 21 days. The procedure:
The present study was conducted in compliance with the Guidance for Animal Experiments, the Ethical Standards for Experiments using Human Tissues, and the Standards for Safety Management of Pathogens established by Ono Pharmaceutical Co., Ltd. Female C.B-17/Icr-scid/scidJcl mice (hereafter referred to as severe combined immunodeficient [SCID] mice) were obtained from CLEA Japan, Inc. (Tokyo, Japan). The age at the beginning of the experiment was 6 weeks. To establish the TMD8 xenograft model, TMD8 cell suspension (0.1 mL, 1 × 10^8 cells/mL) was subcutaneously injected into the right flank of SCID mice under pentobarbital anesthesia. […] Tumor diameters and body weight were measured every 3 or 4 days after group assignment. The tumor growth inhibition rate (%) in the tirabrutinib-treated groups, versus the vehicle group, was calculated based on tumor volume. Statistical tests were performed with the SAS 9.2 (SAS Institute Japan Ltd., Tokyo, Japan) TS2M3-based EXSUS system version 7.7.1 (CAC Corporation, Tokyo, Japan). The Dunnett test was used to compare tumor volume in the tirabrutinib- and vehicle-treated groups, and linear regression analysis was used to study dose response in the tirabrutinib groups. The statistical tests were two-sided with a 5% significance level.

For test [11], the target named is T5, CDC2L2 (Homo sapiens, UniProt Q9UQ88).
T5 construct: gene CDK11A
The experiment in a line: biochemical. On the set-up: KINOMEscan scanMAX competition binding, DNA-tagged kinases, qPCR read-out, percent control at 300 nM. Conditions: read-out: Percent control / Acalabrutinib.

The target of test [12] is PIK3CG (Homo sapiens, UniProt P48736). The experiment in a line: biochemical. As to conditions: read-out: Percent control / Acalabrutinib. On the set-up: KINOMEscan scanMAX competition binding, DNA-tagged kinases, qPCR read-out, percent control at 300 nM.
For test [13], the target named is T6, JNK3 (Homo sapiens, UniProt P53779).
T6 construct: gene MAPK10
The experiment in a line: biochemical. Conditions: read-out: Percent control / Acalabrutinib. Also noted: KINOMEscan scanMAX competition binding, DNA-tagged kinases, qPCR read-out, percent control at 300 nM.

The target in test [14] is PIK3CA(H1047Y) (Homo sapiens, UniProt P42336, H1047Y). The experiment in a line: biochemical. Also noted: KINOMEscan scanMAX competition binding, DNA-tagged kinases, qPCR read-out, percent control at 300 nM. Conditions: read-out: Percent control / Acalabrutinib.
[15] abbreviates: GSEA report for tirabrutinib 10, 10 mg/kg vs vehicle.
[16] abbreviates: GSEA report for vehicle, tirabrutinib 10 mg/kg vs vehicle.

Consider three compounds from paper PMC10004634 (PLOS ONE, 2023).

Sequence of LRRK2(G2019S) (Q5S007 whole entry G2019S): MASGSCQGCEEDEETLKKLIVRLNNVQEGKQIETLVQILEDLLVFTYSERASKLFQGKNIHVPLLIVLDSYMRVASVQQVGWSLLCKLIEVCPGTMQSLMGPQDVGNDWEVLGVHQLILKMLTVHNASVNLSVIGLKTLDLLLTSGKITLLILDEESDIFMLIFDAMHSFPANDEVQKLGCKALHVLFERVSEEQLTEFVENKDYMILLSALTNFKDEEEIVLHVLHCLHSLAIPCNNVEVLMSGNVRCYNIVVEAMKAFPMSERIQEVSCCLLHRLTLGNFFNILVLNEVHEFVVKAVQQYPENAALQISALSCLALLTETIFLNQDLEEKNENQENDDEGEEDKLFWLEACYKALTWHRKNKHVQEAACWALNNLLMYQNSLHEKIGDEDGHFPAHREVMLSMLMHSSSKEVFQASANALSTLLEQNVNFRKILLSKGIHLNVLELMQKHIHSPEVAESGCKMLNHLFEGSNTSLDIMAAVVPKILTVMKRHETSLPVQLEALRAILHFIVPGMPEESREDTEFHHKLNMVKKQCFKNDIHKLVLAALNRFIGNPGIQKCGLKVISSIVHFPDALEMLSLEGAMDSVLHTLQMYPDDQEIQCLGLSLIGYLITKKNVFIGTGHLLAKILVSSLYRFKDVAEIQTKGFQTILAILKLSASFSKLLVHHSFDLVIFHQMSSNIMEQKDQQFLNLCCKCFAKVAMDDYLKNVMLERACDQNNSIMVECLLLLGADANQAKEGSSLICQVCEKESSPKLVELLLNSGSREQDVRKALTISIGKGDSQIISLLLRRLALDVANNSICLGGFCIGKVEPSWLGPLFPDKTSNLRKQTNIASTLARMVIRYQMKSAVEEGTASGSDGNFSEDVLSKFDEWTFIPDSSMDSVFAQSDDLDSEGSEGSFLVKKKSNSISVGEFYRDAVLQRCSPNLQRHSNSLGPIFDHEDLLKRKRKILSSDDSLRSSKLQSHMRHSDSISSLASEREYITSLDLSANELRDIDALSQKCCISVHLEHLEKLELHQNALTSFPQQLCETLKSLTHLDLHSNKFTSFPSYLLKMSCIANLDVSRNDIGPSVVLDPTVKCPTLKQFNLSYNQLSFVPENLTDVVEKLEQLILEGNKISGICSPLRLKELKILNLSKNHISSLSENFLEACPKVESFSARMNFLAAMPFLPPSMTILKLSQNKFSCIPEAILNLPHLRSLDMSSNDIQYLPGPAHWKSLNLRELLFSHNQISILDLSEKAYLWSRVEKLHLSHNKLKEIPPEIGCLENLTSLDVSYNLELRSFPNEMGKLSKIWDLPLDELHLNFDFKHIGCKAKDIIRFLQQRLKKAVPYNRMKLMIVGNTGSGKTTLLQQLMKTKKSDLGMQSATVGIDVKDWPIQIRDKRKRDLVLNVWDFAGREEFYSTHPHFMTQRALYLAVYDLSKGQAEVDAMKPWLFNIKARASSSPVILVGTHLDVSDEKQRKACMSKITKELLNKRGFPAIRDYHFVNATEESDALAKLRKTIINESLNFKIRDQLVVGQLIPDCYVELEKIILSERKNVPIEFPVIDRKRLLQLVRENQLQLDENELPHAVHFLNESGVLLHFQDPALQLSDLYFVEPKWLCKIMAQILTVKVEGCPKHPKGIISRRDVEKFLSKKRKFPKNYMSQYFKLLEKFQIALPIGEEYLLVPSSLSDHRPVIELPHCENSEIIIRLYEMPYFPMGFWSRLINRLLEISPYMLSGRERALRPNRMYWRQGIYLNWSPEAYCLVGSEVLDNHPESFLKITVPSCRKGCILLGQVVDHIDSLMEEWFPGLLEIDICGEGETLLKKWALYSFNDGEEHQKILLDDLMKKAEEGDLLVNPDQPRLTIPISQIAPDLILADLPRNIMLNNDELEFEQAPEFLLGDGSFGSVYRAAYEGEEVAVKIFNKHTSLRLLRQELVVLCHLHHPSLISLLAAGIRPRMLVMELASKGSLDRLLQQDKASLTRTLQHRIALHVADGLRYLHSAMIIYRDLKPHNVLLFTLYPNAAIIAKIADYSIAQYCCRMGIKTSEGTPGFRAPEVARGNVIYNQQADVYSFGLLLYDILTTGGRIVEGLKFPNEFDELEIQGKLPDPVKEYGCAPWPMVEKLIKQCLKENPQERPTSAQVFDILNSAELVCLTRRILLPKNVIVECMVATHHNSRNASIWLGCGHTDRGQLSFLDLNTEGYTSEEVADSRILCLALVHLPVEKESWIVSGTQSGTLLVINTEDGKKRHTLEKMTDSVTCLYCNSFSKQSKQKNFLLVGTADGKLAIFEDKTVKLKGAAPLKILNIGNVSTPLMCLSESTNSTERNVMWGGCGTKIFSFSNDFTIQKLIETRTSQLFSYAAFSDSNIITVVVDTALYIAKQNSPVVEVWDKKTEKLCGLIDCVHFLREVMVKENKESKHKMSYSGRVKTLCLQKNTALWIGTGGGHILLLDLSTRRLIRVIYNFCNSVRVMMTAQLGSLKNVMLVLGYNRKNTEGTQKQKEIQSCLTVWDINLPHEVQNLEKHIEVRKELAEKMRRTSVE
Sequence of PIK3CA(H1047Y) (P42336 whole entry H1047Y): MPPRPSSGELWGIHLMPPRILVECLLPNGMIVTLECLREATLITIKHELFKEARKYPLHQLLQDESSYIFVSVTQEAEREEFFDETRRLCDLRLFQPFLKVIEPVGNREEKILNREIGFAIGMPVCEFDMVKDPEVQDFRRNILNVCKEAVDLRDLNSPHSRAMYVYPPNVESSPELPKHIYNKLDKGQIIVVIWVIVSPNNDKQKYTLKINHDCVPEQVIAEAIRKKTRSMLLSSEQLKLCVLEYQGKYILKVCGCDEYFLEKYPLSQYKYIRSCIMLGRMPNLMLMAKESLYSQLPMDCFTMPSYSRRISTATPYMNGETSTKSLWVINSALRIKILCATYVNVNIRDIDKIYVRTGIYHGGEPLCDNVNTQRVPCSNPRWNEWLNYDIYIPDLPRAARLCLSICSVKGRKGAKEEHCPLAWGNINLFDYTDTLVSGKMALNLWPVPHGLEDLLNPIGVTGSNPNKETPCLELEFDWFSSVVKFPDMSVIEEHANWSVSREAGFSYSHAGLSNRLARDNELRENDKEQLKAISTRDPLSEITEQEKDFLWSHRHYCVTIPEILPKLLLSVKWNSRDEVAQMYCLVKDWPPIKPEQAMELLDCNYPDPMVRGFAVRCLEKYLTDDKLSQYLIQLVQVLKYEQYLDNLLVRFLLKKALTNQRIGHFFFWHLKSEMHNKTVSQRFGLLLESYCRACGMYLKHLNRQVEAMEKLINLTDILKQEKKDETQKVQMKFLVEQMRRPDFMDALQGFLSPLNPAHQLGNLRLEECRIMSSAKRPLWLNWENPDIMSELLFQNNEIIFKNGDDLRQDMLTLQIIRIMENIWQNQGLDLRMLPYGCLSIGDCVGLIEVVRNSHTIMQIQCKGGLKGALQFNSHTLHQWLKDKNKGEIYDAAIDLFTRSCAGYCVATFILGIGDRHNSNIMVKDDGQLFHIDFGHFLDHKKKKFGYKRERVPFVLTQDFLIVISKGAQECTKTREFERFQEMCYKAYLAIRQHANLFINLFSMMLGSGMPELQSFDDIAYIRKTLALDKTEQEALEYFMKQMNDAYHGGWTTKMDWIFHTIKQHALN
T6 sequence (P53779 whole entry): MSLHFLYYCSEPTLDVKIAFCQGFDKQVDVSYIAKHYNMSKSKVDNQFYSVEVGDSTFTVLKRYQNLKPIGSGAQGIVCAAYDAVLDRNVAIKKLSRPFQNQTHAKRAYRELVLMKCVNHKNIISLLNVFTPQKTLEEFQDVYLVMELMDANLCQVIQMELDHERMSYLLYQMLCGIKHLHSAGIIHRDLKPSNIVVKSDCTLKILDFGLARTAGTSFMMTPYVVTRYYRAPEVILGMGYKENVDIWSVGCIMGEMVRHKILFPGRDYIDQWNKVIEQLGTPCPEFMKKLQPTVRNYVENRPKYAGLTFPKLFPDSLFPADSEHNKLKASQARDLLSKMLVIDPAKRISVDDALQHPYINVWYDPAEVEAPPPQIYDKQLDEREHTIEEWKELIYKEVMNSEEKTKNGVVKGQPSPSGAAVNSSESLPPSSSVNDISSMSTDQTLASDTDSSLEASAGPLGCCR
T5 sequence (Q9UQ88 whole entry): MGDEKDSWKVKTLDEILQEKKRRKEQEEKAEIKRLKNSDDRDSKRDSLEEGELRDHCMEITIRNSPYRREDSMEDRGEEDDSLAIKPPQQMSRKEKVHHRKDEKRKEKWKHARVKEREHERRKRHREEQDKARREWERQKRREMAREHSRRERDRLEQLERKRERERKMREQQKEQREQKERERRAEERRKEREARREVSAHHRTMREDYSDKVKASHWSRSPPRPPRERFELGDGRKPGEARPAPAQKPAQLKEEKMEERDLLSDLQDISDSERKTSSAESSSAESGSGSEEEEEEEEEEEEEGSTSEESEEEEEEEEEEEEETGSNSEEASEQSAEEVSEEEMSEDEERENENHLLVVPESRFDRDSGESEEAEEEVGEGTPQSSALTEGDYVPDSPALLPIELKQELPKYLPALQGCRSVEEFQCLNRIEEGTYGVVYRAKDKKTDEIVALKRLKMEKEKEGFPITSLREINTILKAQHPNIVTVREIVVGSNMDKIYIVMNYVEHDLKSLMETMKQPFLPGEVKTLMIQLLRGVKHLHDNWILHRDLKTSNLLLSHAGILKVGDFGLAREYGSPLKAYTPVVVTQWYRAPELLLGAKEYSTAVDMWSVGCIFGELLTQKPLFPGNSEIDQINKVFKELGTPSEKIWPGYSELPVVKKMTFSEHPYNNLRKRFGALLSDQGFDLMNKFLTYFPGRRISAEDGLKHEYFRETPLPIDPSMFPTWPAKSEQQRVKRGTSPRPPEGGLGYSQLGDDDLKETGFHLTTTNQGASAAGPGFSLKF
Sequence of PIK3CA(C420R) (P42336 whole entry C420R): as the sequence (P42336 whole entry H1047Y) above, with C420R, Y1047H counted along it

For the compound `C=CC(=O)N1CCC([C@@H]2CCNc3c(C(N)=O)c(-c4ccc(Oc5ccccc5)cc4)nn32)CC1` [Zanubrutinib], the remaining binding at 0.3 µM turned out to be 67% in [1]; 97% in test [2]; 84% in [3]; 72% in test [4]; 96% in test [5]; 47% in [6]. In addition, the remaining binding at 0.3 µM in test [7] was 100%.

Broadly, the inhibition is the drop in the measured response relative to a control, in per cent. Regarding `CC#CC(=O)N1CC[C@@H](n2c(=O)n(-c3ccc(Oc4ccccc4)cc3)c3c(N)ncnc32)C1` [Tirabrutinib], in [8], the inhibition at 0.3 µM turned out to be 89%. Further, the “IRF4, MYC, and mTORC1 pathway-related genes (GSEA)” value in test [9] (10 mg/kg vs vehicle) is on record as “downregulated”. Besides, in test [9] (setting [15]), the “NES DESCARTES_FETAL_LUNG_LYMPHOID_CELLS” value worked out at 2.406, the “NES DESCARTES_FETAL_STOMACH_LYMPHOID_CELLS” value came out at 2.57, the “NES GOBP_CYTOKINE_PRODUCTION_INVOLVED_IN_INFLAMMATORY_RESPONSE” value worked out at 2.462 and the “NES MORI_PLASMA_CELL_DN” value amounted to 2.456. Further, in test [9] (setting [15]), the “NES REACTOME_GENERATION_OF_SECOND_MESSENGER_MOLECULES” value turned out to be 2.407. Moreover, in test [9] (setting [16]), the “NES ELVIDGE_HIF1A_TARGETS_DN” value is on record as -2.295, the “NES GSE29614_CTRL_VS_DAY7_TIV_FLU_VACCINE_PBMC_DN” value is recorded as -2.25, the “NES MENSE_HYPOXIA_UP” value is given as -2.505 and the “NES QI_HYPOXIA” value is recorded as -2.398. Besides, the “NES TSANG_PBMC_FLUVIRIN_PANDEMRIX_ADULT_CORR_WITH_CELL_FREQ_CD27HI_CD38HI_CD20_NEG_PLASMABLASTS_AND_CD38PLUS_OF_IGD_CD27PLUS_MEM_B_CELLS_7DY_POSITIVE” value in test [9] (setting [16]) is -2.3945. For the same compound, the “anti-tumor effect (tumor volume)” value in test [10] is listed as “dose-dependent anti-tumor effect”.

On to `CC#CC(=O)N1CCC[C@H]1c1nc(-c2ccc(C(=O)Nc3ccccn3)cc2)c2c(N)nccn12` [Acalabrutinib], for which the remaining binding at 0.3 µM was 82% in test [11], 99% in [12], 94% in test [13] and 70% in test [14].
